In patent US6322962A, “Sterol-regulated Site-1 protease and assays of modulators thereof” (Board of Regents, The University of Texas System, priority 1999, dated 2001):
Peptide text beside a SMILES is read from it. * marks the point of attachment. AMC = Cc1cc(=O)oc2cc(N*)ccc12; Boc = CC(C)(C)OC(=O)*

Columns and labels:
purified S1P(983)-C [1] = target: T1, purified S1P(983)-C (Cricetulus griseus, UniProt Q9Z2A8, T875N); assay: Effect of protease inhibitors on S1P(983)-C mediated cleavage of Ac-VFRSLK-MCA; assay type: biochemical, hamster; conditions: for inhibition of S1P(983)-C: result in words
T1 construct: Truncated S1P (amino acids 1-983); GGR linker (NotI site); made in house; host or cells: SRD-12B cells (mutant CHO cells lacking S1P) stably transfected with pCMV-S1P(983)-Myc-His (TR-3117, 'S1P(983) cells'); secreted into the medium and purified on Ni-NTA
T1 sequence (Q9Z2A8 187-983 T875N): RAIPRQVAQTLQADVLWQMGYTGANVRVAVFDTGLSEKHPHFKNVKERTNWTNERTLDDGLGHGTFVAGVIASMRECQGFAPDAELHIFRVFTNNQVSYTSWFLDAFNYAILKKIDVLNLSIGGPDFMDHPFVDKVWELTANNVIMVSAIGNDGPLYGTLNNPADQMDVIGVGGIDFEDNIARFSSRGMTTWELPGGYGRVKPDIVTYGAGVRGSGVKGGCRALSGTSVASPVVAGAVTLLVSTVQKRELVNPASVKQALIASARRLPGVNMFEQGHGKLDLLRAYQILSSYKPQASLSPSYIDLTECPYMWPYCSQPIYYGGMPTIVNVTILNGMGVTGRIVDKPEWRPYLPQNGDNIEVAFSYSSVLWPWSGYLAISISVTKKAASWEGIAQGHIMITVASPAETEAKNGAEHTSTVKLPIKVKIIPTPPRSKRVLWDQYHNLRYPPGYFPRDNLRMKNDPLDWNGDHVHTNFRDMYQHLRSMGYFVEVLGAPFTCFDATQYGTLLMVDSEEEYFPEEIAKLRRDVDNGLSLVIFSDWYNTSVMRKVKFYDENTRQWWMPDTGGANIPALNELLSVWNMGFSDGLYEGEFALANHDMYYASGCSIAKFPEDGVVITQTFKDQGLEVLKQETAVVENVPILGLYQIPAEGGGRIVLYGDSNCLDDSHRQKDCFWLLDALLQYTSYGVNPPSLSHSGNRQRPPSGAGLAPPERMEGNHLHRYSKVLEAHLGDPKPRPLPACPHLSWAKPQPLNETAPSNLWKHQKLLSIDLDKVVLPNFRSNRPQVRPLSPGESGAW
Experimental: (§1) Fluorogenic Peptide Assay for S1P Activity
S1P activity was measured fluorometrically with MCA-conjugated peptidyl substrates. […] After incubation for 0.5-5 h at 37° C., each reaction was terminated by addition of 1 ml of ice-cold 5 mM sodium EDTA. The liberated 7-amino-4-methyl-coumarin (AMC) was measured with a Perkin-ElmerLS-30 luminescence spectrometer (360 nm excitation, 460 nm emission). A standard curve of fluorescence intensity was generated with different concentrations of AMC (Promega).

purified S1P(983)-C [2] = target: T1, purified S1P(983)-C; assay: Fluorogenic peptide assay for S1P activity (cleavage of MCA-conjugated peptides); assay type: biochemical, hamster; conditions: for Relative Activity: 100 μM peptide-MCA, 3 μg S1P(983)-C, 37° C., 5 h, Ac-VFRSLK-MCA set at 1.0; for cleavage of the peptide: result in words
Experimental: as §1
S1P activity was measured fluorometrically with MCA-conjugated peptidyl substrates. Each reaction was carried out in 0.2 ml of assay buffer (25 mM Tris, 25 mM Mes, 25 mM acetic acid, and 1 mM CaCl2 adjusted to pH 8.0 with concentrated NaOH). Reactions contained MCA-peptide (final concentration 100 μM, added in 2 μl DMSO) and […] of purified S1P(983)-C. After incubation for 0.5-5 h at 37° C., each reaction was terminated by addition of 1 ml of ice-cold 5 mM sodium EDTA. The liberated 7-amino-4-methyl-coumarin (AMC) was measured with a Perkin-ElmerLS-30 luminescence spectrometer (360 nm excitation, 460 nm emission). A standard curve of fluorescence intensity was generated with different concentrations of AMC (Promega).
Similar substrates have been used to assay furin, prohormone convertases, and other subtilisin-related enzymes (Nakayama, 1997). […] The sequence of this peptide corresponds to the sequence at Site-B of S1P, which is known to be cleaved by S1P in an autocatalytic reaction. Fluorescence rose linearly with time for 5 h. […] This differs from the observations with furin and the prohormone convertases, whose pH optima are generally in the range of 6-7 (Nakayama, 1997).
The indicated fluorogenic peptide-MCA (100 μM) was incubated with 3 μg of purified S1P(983)-C at 37° C. for 5 h. The S1P activity of Ac-VFRSLK-MCA (SEQ ID NO:13, 930 pmol per min/mg protein) was set at 1.0, and the activity of the other substrates was expressed relative to this value. Each value represents the average of duplicate incubations, which varied from each other by <10%.

[3] = 1 mM, 100 μM Ac-VFRSLK-MCA, 37° C., 5 h
[4] = 10 mM, 100 μM Ac-VFRSLK-MCA, 37° C., 5 h
[5] = pH 8, 1 mM, 100 μM Ac-VFRSLK-MCA, 37° C., 5 h, read-out: AMC Liberated, % control
[6] = pH 8, 10 mM, 100 μM Ac-VFRSLK-MCA, 37° C., 5 h, read-out: AMC Liberated, % control
[7] = 0.0003 mM, 100 μM Ac-VFRSLK-MCA, 37° C., 5 h
[8] = 3 mM, 100 μM Ac-VFRSLK-MCA, 37° C., 5 h
[9] = pH 8, 3 mM, 100 μM Ac-VFRSLK-MCA, 37° C., 5 h, read-out: AMC Liberated, % control

Molecule: O[C@H](CS)[C@H](O)CS (racemic) [Dithiothreitol]
- AMC Liberated (purified S1P(983)-C [1]; 0.1 mM, 100 μM Ac-VFRSLK-MCA, 37° C., 5 h): 615 pmol/tube
- AMC Liberated (purified S1P(983)-C [1]; [3]): 323 pmol/tube
- AMC Liberated (purified S1P(983)-C [1]; [4]): 99 pmol/tube
- remaining activity at 100 µM (purified S1P(983)-C [1]; pH 8, 0.1 mM, 100 μM Ac-VFRSLK-MCA, 37° C., 5 h, read-out: AMC Liberated, % control): 73%
- remaining activity at 1000 µM (purified S1P(983)-C [1]; [5]): 38%
- remaining activity at 10000 µM (purified S1P(983)-C [1]; [6]): 12%

Molecule: Aprotinin
- AMC Liberated (purified S1P(983)-C [1]; [7]): 745 pmol/tube
- AMC Liberated, % control (purified S1P(983)-C [1]; [7]): 89 % control
- inhibition of S1P(983)-C (purified S1P(983)-C [1]): resistant

Molecule: calcium
- calcium concentrations at which the reaction was inhibited (purified S1P(983)-C [1]): above 3 mM
- effect of omission of calcium on the enzyme reaction (purified S1P(983)-C [1]; omission during purification and in the assay buffer): not affected

Molecule: O=C(O)CN(CCOCCOCCN(CC(=O)O)CC(=O)O)CC(=O)O [EGTA]
- AMC Liberated (purified S1P(983)-C [1]; [8]): 609 pmol/tube
- AMC Liberated (purified S1P(983)-C [1]; 30 mM, 100 μM Ac-VFRSLK-MCA, 37° C., 5 h): 305 pmol/tube
- remaining activity at 3000 µM (purified S1P(983)-C [1]; [9]): 73%
- remaining activity at 30000 µM (purified S1P(983)-C [1]; pH 8, 30 mM, 100 μM Ac-VFRSLK-MCA, 37° C., 5 h, read-out: AMC Liberated, % control): 36%
- inhibition of S1P(983)-C (purified S1P(983)-C [1]): partially inhibited

Molecule: Cc1cc(=O)oc2cc(NC(=O)[C@H](CCCNC(=N)N)NC(=O)[C@H](CCCNC(=N)N)NC(=O)[C@@H](NC(=O)[C@H](CCCNC(=N)N)NC(=O)OC(C)(C)C)C(C)C)ccc12 [Boc-RVRR-MCA, Boc-Arg-Val-Arg-Arg-MCA] (Boc-RVRR-{AMC})
- Relative Activity (purified S1P(983)-C [2]): < 0.1
- cleavage of the peptide (purified S1P(983)-C [2]): did not cleave
- cleavage of the peptide (purified S1P(983)-C [2]; listed as RVRR-MCA): does not cleave

Molecule: c1cnc2c(c1)ccc1cccnc12 [1,10-Phenanthroline, 1,10-phenanthroline]
- AMC Liberated (purified S1P(983)-C [1]; [8]): 361 pmol/tube
- AMC Liberated (purified S1P(983)-C [1]; [4]): 253 pmol/tube
- remaining activity at 3000 µM (purified S1P(983)-C [1]; [9]): 43%
- remaining activity at 10000 µM (purified S1P(983)-C [1]; [6]): 30%
- inhibition of S1P(983)-C (purified S1P(983)-C [1]): partially inhibited

Molecule: O=S(=O)(F)Cc1ccccc1 [PMSF, phenylmethylsulfonyl fluoride]
- AMC Liberated (purified S1P(983)-C [1]; [3]): 853 pmol/tube
- AMC Liberated, % control (purified S1P(983)-C [1]; [3]): 102 % control
- AMC Liberated (purified S1P(983)-C [1]; [4]): 690 pmol/tube
- AMC Liberated, % control (purified S1P(983)-C [1]; [4]): 82 % control
- inhibition of S1P(983)-C (purified S1P(983)-C [1]): resisted

Molecule: CC(=O)N[C@@H](CC(C)C)C(=O)N[C@@H](CC(C)C)C(=O)N[C@H](C=O)CCCNC(=N)N [Leupeptin]
- AMC Liberated (purified S1P(983)-C [1]; [3]): 754 pmol/tube
- remaining activity at 1000 µM (purified S1P(983)-C [1]; [5]): 90%
- inhibition of S1P(983)-C (purified S1P(983)-C [1]): resistant

Molecule: CC(=O)N[C@H](C(=O)N[C@@H](Cc1ccccc1)C(=O)N[C@@H](CCCNC(=N)N)C(=O)N[C@@H](CO)C(=O)N[C@@H](CCCNC(=N)N)C(=O)N[C@@H](CCCNC(=N)N)C(=O)Nc1ccc2c(C)cc(=O)oc2c1)C(C)C [Ac-VFRSRR-MCA, Ac-Val-Phe-Arg-Ser-Arg-Arg-MCA] (Ac-VFRSRR-{AMC})
- Relative Activity (purified S1P(983)-C [2]): < 0.1
- cleavage of the peptide (purified S1P(983)-C [2]): did not cleave
